No end group written: not given here.
Test: Direct dissolution of tagged peptides in aqueous solvent (PBS) at 4 mg/mL, NanoDrop
Format: physicochemical
Details: 4 mg/mL in PBS vs DMSO control; FIG. 2
Protocol: For each test peptide and the parent peptides (PRCLT and DNIMV) two tubes were prepared at 4 mg/mL in either DMSO (control) or PBS.
Each tube was spun at full speed in a mini-centrifuge for 5 minutes. A 10 μL sample was removed from the top of each solution and the molecular weight and coefficient of absorption was recorded for each peptide.
The absorbance of the supernatant was measured using NanoDrop and the concentration calculated. In this Figure, greater disparity between the actual and expected concentration corresponds to lower relative solubility.

solubility in PBS compared to the parent peptides	Sequence
improved solubility in PBS	KEGDNIMVTFRNQASRPYGKE [SEQ ID No. 26]
improved solubility in PBS	KEGDNIMVTFRNQASRPYGKK [SEQ ID No. 25]
improved solubility in PBS	KEGPRCLTRYYSSFVNMEGKE [SEQ ID No. 10]
improved solubility in PBS	KEGPRCLTRYYSSFVNMEGKK [SEQ ID No. 9]
improved solubility in PBS	KKGDNIMVTFRNQASRPYGKE [SEQ ID No. 18]
improved solubility in PBS	KKGDNIMVTFRNQASRPYGKK [SEQ ID No. 17]
improved solubility in PBS	KKGPRCLTRYYSSFVNMEGKE [SEQ ID No. 2]
improved solubility in PBS	KKGPRCLTRYYSSFVNMEGKK [SEQ ID No. 1]
